According to patent US11291675B2, “6′-sialyllactose for use in the treatment of hearing loss” (Rheinische Friedrich-Wilhelms-Universität Bonn, priority 2017, dated 2022):
Entries after “also recorded” stand apart in the source; their conditions may differ.

Legend:
human THP-1 macrophages = assay: Beads phagocytosis in LPS-activated THP-1 macrophages (flow cytometry); type: cell-based; conditions: THP-1 macrophages activated by 3 μg/ml LPS, 24 hours; 0.5 μM test substance; vs LPS alone
Protocol: The effect of 6′- and 3′-sialyllactose on beads phagocytosis was determined in the human mononuclear phagocyte cell line THP-1. The human mononuclear phagocyte cell line THP-1 was maintained in RPMI medium supplemented with 1% L-glutamine, 1% Penicillin/Streptomycin and 1% heat-inactivated chicken serum, at 5% CO2 and 37° C. For passaging, the cells were transferred to a 50 mL Falcon tube and centrifuged at 1300 rpm for 3 min. The supernatant was removed and the pellet was re-suspended in 5 mL of warm medium. For differentiation into macrophage-like cells, the cell density was adjusted to approximately 1×10^6 cells/mL. The cell suspension was mixed with 10 ng/mL PMA (Phorbol 12-myristate 13-acetate, Sigma) and distributed in volumes according to each experiment. Cells were incubated for 48 h, washed twice with medium and then cultured in medium for additional 48 h without PMA. For experimentation THP-1 macrophages were cultured in RPMI medium supplemented with 1% L-glutamine, 1% Penicillin/Streptomycin and 1% heat-inactivated chicken serum, at 5% CO2 and 37° C. […]
Beads phagocytosis was analyzed by flow cytometry (BD FACSCalibur) by quantification of the percentage of cells having ingested 2 or more beads.

[1] = tested on: CD68+ mononuclear phagocytes in the spiral ganglion; assay: Macrophage activation (CD68+ cells) in the spiral ganglion, animal model of antibiotic-induced hearing loss; type: in vivo, mouse; conditions: seven consecutive days
Protocol: To determine the effect of 6′-sialyllactose on macrophage activation in the inner ear, one-week old C57BL/6 pubs of mice were treated subcutaneously with either 50 μl PBS, 50 μl of 200 mg/kgbw neomycin (Neo, Sigma, N5285) in PBS, or 50 μl of 200 mg/kgbw neomycin (Sigma, N5285) plus 100 mg/kgbw 6′-sialyllactose (Carbosynth, OS04398) in PBS or only PBS as vehicle control for seven consecutive days. Mice were sacrificed two weeks after the last injection.
For further investigations, cochleae of the mice were isolated, post-fixed in 4% paraformaldehyde (PFA), decalcified in 5% EDTA, incubated in 30% sucrose until fully soaked, embedded in a cryoprotectant and cut into 20 μm thin slices from the apex to the base of the cochlea with a cryostat. For quantification of the macrophage activation in the cochlea, cryosections from different levels of the cochlea were chosen and co-stained with antibodies against the macrophage activation marker CD68 and the cellular nuclei marker DAPI. […] The area of the spiral ganglion was selected and measured using ImageJ. The CD68-positive cells were counted within the chosen area and the cell density of the macrophage in the spiral ganglion was calculated and normalized to the PBS vehicle treated condition. Data were analyzed by one-way ANOVA with Bonferroni post-hoc correction.

[2] = tested on: hair cells of the middle turn of the cochlea; assay: Hair cell count (Myo7A+ cells) in the cochlea, animal model of antibiotic-induced hearing loss; type: in vivo, mouse; conditions: seven consecutive days
Protocol: One-week old BL6 pubs of mice were treated subcutaneously with either 50 μl PBS, 50 μl of 200 mg/kgbw neomycin (Sigma, N5285) in PBS, or 50 μl of 200 mg/kgbw neomycin (Sigma, N5285) plus 100 mg/kgbw 6′-sialyllactose (Carbosynth, OS04398) in PBS for seven consecutive days. Mice were sacrificed two weeks after the last injection. For further investigations cochlea of the mice were isolated, post-fixed in 4% PFA, decalcified in 5% EDTA, incubated in 30% sucrose until fully soaked, embedded in a cryoprotectant and cut into 20 μm thin slices from the apex to base of the cochlea with a cryostat. For quantification of the hair cell density in the cochlea, cryosections from different levels of the cochlea were chosen and co-stained with antibodies against the hair cell marker Myosin7A (Myo7A) and the cellular nuclei marker DAPI. Images were taken with a confocal microscope and divided into different sections from apex to base of the cochlea. Myosin7a-positive cells were counted in each section.

[3] = tested on: sensory neurons in the spiral ganglion; assay: Sensory neuron density (NeuN+ cells) in the spiral ganglion, animal model of antibiotic-induced hearing loss; type: in vivo, mouse; conditions: seven consecutive days
Protocol: One-week old C57BL/6 pubs of mice were treated subcutaneously with either 50 μl PBS, 50 μl of 200 mg/kgbw neomycin (Sigma, N5285) in PBS, or 50 μl of 200 mg/kgbw neomycin (Sigma, N5285) plus 100 mg/kgbw 6′-sialyllactose (Carbosynth, OS04398) in PBS for seven consecutive days. Mice were sacrificed 2 weeks after the last injection. For further investigations cochlea of the mice were isolated, post-fixed in 4% PFA, decalcified in 5% EDTA, incubated in 30% sucrose until fully soaked, embedded in a cryoprotectant and cut into 20 μm thin slices from the apex to base of the cochlea with a cryostat. For quantification of the sensory neurons in the cochlea, cryosections from different levels of the cochlea were chosen and stained with antibodies for neuronal nuclei (NeuN) and the cellular nuclei marker DAPI. Z-stacks of 3×2 μm images were taken with a confocal microscope and stacks were afterwards combined to maximal projection images. The area of the spiral ganglion was selected and measured using ImageJ.
The NeuN-positive cells of the mice treated with neomycin (Neo), neomycin plus 6′-sialyllactose (Neo+6SL) or vehicle control (PBS) within the chosen area were counted and the neuronal density of the spiral ganglion was calculated and normalized to the PBS treated condition. […] Data were analyzed by one-way ANOVA with Bonferroni post-hoc correction (*p<0.05).

[4] = tested on: human iPS cell-derived sensory neurons co-cultured with human THP1-macrophages; assay: Neural branches length in co-culture of iPS cell-derived sensory neurons and THP1 macrophages; type: cell-based; conditions: neurons plus THP1 macrophages, 100 μM 6′-sialyllactose, 48 hours; vs co-culture without 6′-sialyllactose
Protocol: The effect of 6′-sialyllactose on sensory neural branches was determined in a human co-culture system with induced pluripotent stem cell derived sensory neurons and human THP1-macrophages.
Human sensory neurons were obtained from human induced pluripotent stem (iPS) cells. At day 0, the iPS colonies were detached by collagenase IV, collected by sedimentation, and resuspended in DMEM/F12 medium supplemented by 20% KO serum, 1% nonessential amino acids, 10 μM SB (SB-431542, inhibitor of TGF-beta), 1 μM dorsomorphin, 3 μM CHIR, and 0.5 μM purmorphamine for 2 days. […] Afterwards, the neural stem cells (NSCs) were ready for differentiation. […]
The human THP1 mononuclear phagocyte cell line was maintained in RPMI medium supplemented with 1% L-glutamine, 1% Penicillin/Streptomycin, 1% sodium-pyruvate, 1% heat-inactivated chicken serum, and 1% N2 supplement at 5% CO2 and 37° C. […] For experiments, THP-1 macrophages were scraped, counted and added to the sensory iPS cell-derived neurons in co-culture medium 1:1 ratio (N2B27 medium plus BDNF, GDNF, dbcAMP) and treated with 100 μM 6′-sialyllactose (Carbosynth), that was re-purified by a HPLC-based anion exchange chromatography before use, or vehicle control for another 48 hours. […]

[5] = mice, 200 mg/kgbw neomycin alone s.c., vs PBS

CC(=O)NC1C(O)CC(OC2C(O)C(CO)OC(OC3C(CO)OC(O)C(O)C3O)C2O)(C(=O)O)OC1[C@H](O)[C@H](O)CO (stereo partly drawn) [3′-sialyllactose, reference compound]
relative beads phagocytosis rate (cells having ingested 2 or more beads) (human THP-1 macrophages): had no effect on the LPS-induced uptake of beads; also recorded: only showed a tendency without significance

NC[C@@H]1O[C@H](O[C@H]2[C@@H](O)[C@H](O[C@@H]3[C@@H](O)[C@H](N)C[C@H](N)[C@H]3O[C@H]3O[C@H](CN)[C@@H](O)[C@H](O)[C@H]3N)O[C@@H]2CO)[C@H](N)[C@@H](O)[C@@H]1O [neomycin, reference compound]
CD68+ cells per area in the spiral ganglion [1, 5]: strongly increases the number of mononuclear phagocytes | Myo7A-positive hair cells of the middle turn of the cochlear organ of Corti [2, 5]: strong reduction | NeuN-positive cells in the spiral ganglion [3, 5]: reduction

Neu5Ac-α(2→6)-Gal-β(1→4)-Glc [6′-sialyllactose]
CD68+ macrophages per area in the spiral ganglion (macrophage activation), normalized to PBS ([1]; one-week old C57BL/6 mice, 200 mg/kgbw neomycin plus 100 mg/kgbw 6′-sialyllactose s.c., sacrificed two weeks after last injection, vs neomycin alone): slight attenuation of macrophage activation; also recorded: might partially be prevented | Myo7A-positive hair cells of the middle turn of the cochlea per slice ([2]; one-week old BL6 mice, 200 mg/kgbw neomycin plus 100 mg/kgbw 6′-sialyllactose s.c., vs neomycin alone): partially rescued; also recorded: reduced the neomycin-induced loss of the hair cells | NeuN-positive cells (neuronal density) in the spiral ganglion, normalized to PBS ([3]; one-week old C57BL/6 mice, 200 mg/kgbw neomycin plus 100 mg/kgbw 6′-sialyllactose s.c., vs neomycin alone): less present; also recorded: might reduce the neomycin-induced loss of the sensory neurons | relative beads phagocytosis rate (cells having ingested 2 or more beads) (human THP-1 macrophages): reduced the phagocytic uptake of microsphere beads; also recorded: reduced phagocytosis of beads | relative neural branches length [4]: could prevent the reduction in neural branches length
